Data taken from patent US20100150844A1, “USE OF 8-QUINOLINOL AND ITS ANALOGS TO TARGET CANCER STEM CELLS” (The Johns Hopkins University, priority 2006, published 2010).
“Also recorded” adds a separate entry of the source. Where two headings read alike, the source gives them in different places. Non-standard residues stand in square brackets, D forms with d. Residues, ends and D or L forms follow the SMILES beside them. *: point of attachment. Nle = CCCC[C@H](N)C(=O)O; Cbz = O=C(OCc1ccccc1)*

Tests used:
[1] = tail vein, 20 mg/kg, nude mice
Experimental: (§1) FIGS. 5A-5F. […] Experiment was performed as described in FIG. 3 and Materials and Methods. B: Structure of NSC125034 and 8Q. […] D: In vivo effect of 8Q (4 mg/Kg) by intratumor injection. […] Mice were treated twice weekly for 3 weeks. Tumor sizes were measured weekly. E: In vivo effect of 8Q (20 mg/Kg) by tail vein injection on two different types of breast cancer cell lines, MCF7 (estrogen dependent, xenograft model reflect the early-stage breast malignancy) and MDA-MB435 (estrogen […], xenograft model reflect the later-stage breast malignancy). Mice were treated twice weekly for 4 weeks. (1) MCF7 xenograft (2) MDA-MB435 xenograft. F: Total body weight of individual mouse in the tail vein injection experiment was determined weekly and the average body weight was plotted.
(§2) Antitumor activity in xenograft model. […] Stock solutions of paclitaxel alone, 8-Quinolinol (8Q) alone or in combination with paclitaxel were prepared by dissolving the drugs in a vehicle solution (EtOH:cremophor, 50:50 v/v). Vehicle or paclitaxel alone, 8Q alone and 8Q in combination with paclitaxel stock solution were mixed with saline (10:90 v/v). For intratumor injection, the 8Q dose was 4 mg/kg, given twice weekly for three weeks. […] The tumor volumes were determined by measuring the length (l) and the width (w) and calculating the volume (V=lw^2/2). […]

[2] = tested on: MCF7 xenograft; settings: tail vein injection, 8Q 20 mg/kg twice weekly for 4 weeks, FIG. 5E(1)
Experimental: as §1, §2

[3] = in words; solvent DMSO or ethanol
[4] = rat, U.S. National Toxicology Program acute toxicity studies; cited from earlier work
[5] = tested on: MDA-MB-435 tumor; assay: Antitumor activity in nude mouse xenograft model, MDA-MB-435; format: in vivo
Experimental: as §1, §2

[6] = tested on: MCF7 cells; assay: Cell proliferation assay (MTT), MCF7 parental cells; format: cell-based, human
Experimental: (§3) FIG. 2. Susceptibility of MCF7 sphere cells to common anticancer drugs compared with MCF7 cells. Single MCF7 and MCF7 sphere cells were inoculated into 96 well plates at a concentration of 5000 cells per well. After overnight culture, cells were subject to selected clinical drug treatment at the indicated dose for three days. Cell proliferation was determined by MTT assay.
(§4) Cell proliferation assay. […] Each concentration was repeated three times.

[7] = mouse, U.S. National Toxicology Program acute toxicity studies; cited from earlier work
[8] = tested on: MCF7 sphere cells; assay: Cell proliferation assay (MTT), MCF7 sphere cells; format: cell-based, human
Experimental: as §3
MCF7 and MCF7 sphere cell culture. Human breast cancer cell line MCF7 cells, MDA-MB-435 cells were obtained from ATCC (American Type Culture Collection). Cells were grown in Dulbecco's Modified Eagle's Medium (DMEM) (Invitrogen) supplemented with 10% fetal bovine serum (FBS) (Invitrogen), 100 units/ml penicillin and 100 ug/ml streptomycin (Invitrogen), in a 37° C. incubator containing 5% CO2. To isolate and culture MCF7 sphere cells, SP cells were sorted based on protocol shown below. Sphere cell culture was performed according to published protocol with modifications^28-30. Briefly, single cells were plated in ultralow attachment plates (Corning, N.Y.) at a density of 20,000 viable cells/mL in primary culture and 1000 cells/mL in passages. Cells were grown in a serum-free mammary epithelial growth medium without bovine pituitary extract (MEGM, BioWhittaker), but supplemented with serum substitute B27 (Invitrogen), 20 ng/mL, Epidermal Growth Factor (EGF), 20 ng/mL, and 20 ng/mL basic fibroblast growth factor (bFGF) (BD Biosciences). In order to passage sphere cells, spheres were collected into 15 ml conic tubes and allowed to settle for 15 minutes. Supernatant was removed. Sphere cells were dissociated enzymatically with 0.05% trypsin, 0.5 mM EDTA (Invitrogen) and mechanically by a glass Pasteur pipette. The cells obtained from dissociation were passed through a 40-μm sieve and analyzed microscopically for single cells and subjected to the experiments below.
as §4

[9] = tested on: MCF7 SP cells; assay: cells; settings: Homo sapiens, MCF7, read-out: growth inhibition
Experimental: (§5) To identify and sort SP and non-SP fractions, cells were washed with phosphate buffered saline (PBS) and detached from the culture dish with trypsin and EDTA, pelleted by centrifugation, and resuspended in 37° C. DMEM containing 2% FBS at 1×10^6 cell/ml. Cell staining was performed according to the protocol originally developed by Goodell et al with slight modification^46. […] Following staining, the cells were spun down and resuspended in Hanks'Balanced Salt Solution (HBSS) (Invitrogen) containing 1 μg/ml propidium iodide and maintained at 4° C. for flow cytometry analysis/sorting. Cell analysis and sorting were performed on a MoFlo cytometer (Dako Cytomation, Fort Collins, Colo. USA) equipped with a Coherent Enterprise II laser emitting MLUV at 351 nm and blue 488 nm lines.
(§6) Cell proliferation assay. To test the sensitivity of MCF7 and MCF7 sphere cells to specific compounds, both MCF7 and MCF7 sphere single cells were seeded at 3×10^4 cells/ml in 96-well plates. After overnight incubation, serial concentrations of tested compounds were added. Each concentration was repeated three times. These cells were incubated in a humidified atmosphere with 5% CO2 for 3 days. […] The medium was removed and formazan was dissolved in DMSO and the optical density was measured at 590 nm using a Bio-assay reader (Bio-Rad, USA).

[10] = tested on: MCF7 non-SP cells; assay: cells; settings: Homo sapiens, MCF7, read-out: growth inhibition
Experimental: as §5, §6

[11] = tested on: NF-κB; assay: Trans-AM NF-κB assay on nuclear extracts of MCF7 cells; format: cell-based; settings: Homo sapiens, 24 hours
Experimental: (§7) FIGS. 3A-3B. A: Susceptibility of MCF7 and MCF7 sphere cells PI3K pathway inhibitor, rapamycin and NF-κB pathway inhibitors, PTL and PDTC at indicated doses. Experiment was performed as described in FIG. 2 and Materials and Methods. B: Inhibition of NF-κB activity of MCF7 and MCF7 sphere cells after treatment with PTL and PDTC at indicated concentrations. Cells were treated with these compounds at indicated doses for 24 hours. Nuclear extract was prepared from control and treated cells. The quantification of NF-κB activation was performed according to product manual. Nuclear extract preparation. […] After the nuclear lysates were centrifuged, supernatants were collected for quantification of NF-κB activation. The protein concentrations in the supernatants were determined using the BCA protein assay kit (Pierce, Rockford, Ill.). Quantification of NF-κB activation. Trans-AM NF-κB assay, an enzyme-linked immunosorbent assay (ELISA)-based method (Trans-AM NF-κB; Active Motif, Carlsbad, Calif.) was used for NF-κB activity quantification according to the manufacturer's instruction. Briefly, cell nuclear extracts were placed in 96-well plates coated with an oligonucleotide containing the NF-κB consensus sequence, and the presence of active NF-κB was detected by using antibodies specific for p50 subunits that are not complexed to IκB and thus able to bind the consensus sequence. […]

[12] = tested on: NF-κB; assay: Trans-AM NF-κB assay on nuclear extracts of MCF7 sphere cells; format: cell-based, human; settings: 5 μM, 24 hours
Experimental: as §7

[13] = comparison sphere versus parental cells, in words

Molecule: Oc1cccc2cccnc12 [8Q, 8-quinolinol]
- toxicity judged by apparent symptoms and body weight loss [1]: did not show significant toxicity
- tumor growth inhibition [2]: significantly inhibited tumor growth
- solubility [3]: Ethanol soluble
- LD50 (oral) [4]: 1200 mg/kg
- tumor growth inhibition ([5]; intratumor injection, 8Q 4 mg/kg twice weekly for 3 weeks, FIG. 5D): significantly inhibited tumor growth
- inhibition at 5 µM ([6]; Homo sapiens, MCF7, 72 h, read-out: growth inhibition): 30%
- LD50 (oral) [7]: 20000 mg/kg
- inhibition at 5 µM ([8]; Homo sapiens, 72 h, 5 μM, three day treatment, MCF7 sphere cells, read-out: growth inhibition): 86%
- growth inhibition on MCF7 sphere cells compared with MCF7 cells [8, 13]: preferentially inhibit the cancer stem cells over bulk cancer cells
- inhibition at 5 µM [9]: 84.7%
- inhibition at 5 µM [10]: 71.9%

Molecule: CCCC[C@@H](C=O)NC(=O)[C@H](CC(C)C)NC(=O)[C@H](CC(C)C)NC(=O)OCc1ccccc1 [GSI1] (Cbz-Leu-Leu-[Nle]-aldehyde)
- growth inhibition on MCF7 sphere cells compared with MCF7 cells [8, 13]: did not inhibit MCF7 sphere cells more than the MCF7 parental cells; also recorded: no higher growth inhibitor ability on MCF7 sphere cells than MCF7 cells

Molecule: S=C(S)N1CCCC1 [PDTC, pyrrolidine dithiocarbamate]
- growth inhibition ([6]; 1 uM, MCF7 cells): no growth inhibition effects
- inhibition at 5 µM [11]: 33.6%
- inhibition at 1 µM ([8]; Homo sapiens, 1 uM, MCF7 sphere cells, read-out: growth inhibition): 50.8%
- growth inhibition on MCF7 sphere cells compared with MCF7 cells [8, 13]: inhibit MCF7 sphere cells more strongly than the parental MCF7 cells; also recorded: very marked growth inhibition on MCF7 sphere cells compared to MCF7 cells
- decrease of NF-κB activity [12]: 61.8%

Molecule: CC1=C2C[C@H]3[C@@H](CC=C4C[C@@H](O)CC[C@@]43C)[C@@H]2CC[C@]12O[C@@H]1C[C@H](C)CN[C@H]1[C@H]2C [cyclopamine]
- growth inhibition on MCF7 sphere cells compared with MCF7 cells [8]: did not inhibit MCF7 sphere cells more than the MCF7 parental cells; also recorded: no higher growth inhibitor ability on MCF7 sphere cells than MCF7 cells

Molecule: CC(=O)O[C@H]1C(=O)[C@@]2(C)[C@H]([C@H](OC(=O)c3ccccc3)[C@]3(O)C[C@H](OC(=O)[C@H](O)[C@@H](NC(=O)c4ccccc4)c4ccccc4)C(C)=C1C3(C)C)[C@]1(OC(C)=O)CO[C@@H]1C[C@@H]2O [paclitaxel]
- tumor growth inhibition ([5]; positive control, paclitaxel 15 mg/kg): inhibited the tumor growth as expected
- inhibition at 0.25 µM ([6]; Homo sapiens, 72 h, 0.25 uM, 3 days, MCF7 parental cells, read-out: growth inhibition): 44.5%
- inhibition at 0.25 µM ([8]; Homo sapiens, 72 h, 0.25 uM, 3 days, MCF7 sphere cells, read-out: growth inhibition): 6.1%

B1: DKK1: Wnt pathway inhibitor (protein, UniProt O94907 32-266, looked up)
Dickkopf-related protein 1: TLNSVLNSNAIKNLPPPLGGAAGHPGSAVSAAPGILYPGGNKYQTIDNYQPYPCAEDEECGTDEYCASPTRGGDAGVQICLACRKRRKRCMRHAMCCPGNYCKNGICVSSDQNHFRGEIEETITESFGNDHSTLDGYSRRTTLSSKMYHTKGQEGSVCLRSSDCASGLCCARHFWSKICKPVLKEGQVCTKHRRKGSHGLEIFQRCYCGEGLSCRIQKDHHQASNSSRLHTCQRH
- growth inhibition on MCF7 sphere cells compared with MCF7 cells [8, 13]: no higher growth inhibitor ability on MCF7 sphere cells than MCF7 cells
- growth inhibition on MCF7 sphere cells compared with MCF7 cells ([8]; comparison sphere versus parental cells, in words, listed as DKKI): did not inhibit MCF7 sphere cells more than the MCF7 parental cells
